# Measured values: article PMC10609143, “Inhibitory Mechanisms of Lekethromycin in Dog Liver Cytochrome P450 Enzymes Based on UPLC-MS/MS Cocktail Method” (Molecules, 2023)
# How the values were obtained:
# Format in all cases: in vitro ADME
# [1] = biological target: T1, CYP2D6 (Canis lupus familiaris, UniProt Q29473); assay: CYP450 inhibition study of LKMS in dog liver microsomes, dextromethorphan O-demethylation
# T1 construct: from tissue; host or cells: dog liver microsomes (DLM)
# T1 sequence (Q29473 1-500): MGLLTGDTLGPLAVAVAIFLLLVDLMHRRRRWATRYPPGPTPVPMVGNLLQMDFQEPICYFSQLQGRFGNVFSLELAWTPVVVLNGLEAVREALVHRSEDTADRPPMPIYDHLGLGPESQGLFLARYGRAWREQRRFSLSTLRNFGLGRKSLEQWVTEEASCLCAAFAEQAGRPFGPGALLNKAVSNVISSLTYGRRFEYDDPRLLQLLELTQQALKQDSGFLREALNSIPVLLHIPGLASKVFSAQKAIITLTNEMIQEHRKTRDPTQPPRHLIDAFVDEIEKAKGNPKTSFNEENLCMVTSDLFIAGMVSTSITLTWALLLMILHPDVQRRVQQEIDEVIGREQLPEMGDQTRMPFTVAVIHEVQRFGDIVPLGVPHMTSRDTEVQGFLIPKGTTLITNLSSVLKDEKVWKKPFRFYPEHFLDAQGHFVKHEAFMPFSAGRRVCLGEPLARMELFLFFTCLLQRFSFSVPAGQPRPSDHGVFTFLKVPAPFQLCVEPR
# Procedure: (§1) All experiments were performed in triplicate.
# (§2) Inhibition assessment of CYP450 isoforms in DLM was performed with a fixed concentration of model probe substrates and a series of concentrations of LKMS ranging from 0 to 80 μM. The concentration of probe substrates was at a concentration of Km in this study. […] Mode inhibition was examined based on a primary Lineweaver–Burk plot and a secondary plot.
# (§3) The IC50 values and enzyme kinetic parameters were determined by plotting relative activities over the logarithm of the concentration of LKMS using GraphPad (v.8.0.2, CA, USA). The mode of the inhibitor was analyzed using a Lineweaver–Burk plot and a secondary plot for inhibition constant (Ki and αKi) values. All experimental data are shown as mean ± standard deviation (SD).
# [2] = biological target: T2, CYP2E1 (Canis lupus familiaris, UniProt Q9MZY0); assay: CYP450 inhibition study of LKMS in dog liver microsomes, chlorzoxazone hydroxylation; settings: probe at Km, 15 min, 0.2 mg/mL protein, n = 3
# T2 construct: from tissue; host or cells: dog liver microsomes (DLM)
# Procedure: as §1, §2, §3
# [3] = biological target: T3, CYP1A2 (Canis lupus familiaris, UniProt P56592); assay: CYP450 inhibition study of LKMS in dog liver microsomes (cocktail, UPLC-MS/MS), phenacetin O-deethylation; settings: probe at Km, 15 min, 0.2 mg/mL protein, n = 3
# T3 construct: from tissue; host or cells: dog liver microsomes (DLM)
# T3 sequence (P56592 1-512): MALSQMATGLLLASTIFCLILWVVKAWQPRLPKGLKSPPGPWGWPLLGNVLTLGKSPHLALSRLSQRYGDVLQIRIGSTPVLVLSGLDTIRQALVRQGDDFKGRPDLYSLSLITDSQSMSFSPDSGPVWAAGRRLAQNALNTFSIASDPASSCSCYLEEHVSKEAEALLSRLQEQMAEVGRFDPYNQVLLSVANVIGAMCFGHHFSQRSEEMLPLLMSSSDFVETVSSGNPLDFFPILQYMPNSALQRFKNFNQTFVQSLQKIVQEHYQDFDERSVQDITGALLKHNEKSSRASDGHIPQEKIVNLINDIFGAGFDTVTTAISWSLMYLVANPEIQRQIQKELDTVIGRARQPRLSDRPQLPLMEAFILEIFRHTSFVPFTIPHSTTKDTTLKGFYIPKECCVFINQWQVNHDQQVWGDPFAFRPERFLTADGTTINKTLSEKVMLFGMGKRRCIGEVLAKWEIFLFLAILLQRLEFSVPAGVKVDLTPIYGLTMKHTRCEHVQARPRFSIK
# Procedure: as §1, §2, §3
# [4] = tested on: CYP2C9; assay: CYP450 inhibition study of LKMS in dog liver microsomes, tolbutamide 4-hydroxylation; settings: probe at Km, 15 min, 0.2 mg/mL protein, n = 3
# Procedure: as §1, §2, §3
# [5] = tested on: CYP2A6; assay: CYP450 inhibition study of LKMS in dog liver microsomes, coumarin hydroxylation
# Procedure: as §1, §2, §3
# [6] = tested on: CYP450 enzymes in dog liver microsomes; assay: Chemical inhibition experiments: LKMS disappearance rate with selective CYP450 inhibitors; settings: n = 3
# Procedure: The effect of selective inhibitors on the rate of LKMS disappearance was investigated to identify the metabolizing enzymes of LKMS. The total volume of the incubation system was 200 μL, which contained the tested compound, inhibitors, PBS (pH = 7.4), LKMS, and NADPH. The study was performed via incubation with different inhibitors of CYP450 as follows: α-naphthoflavone (CYP1A2, 2 μM), pilocarpine (CYP2A6, 8 μM), Thio-TEPA (CYP2B6, 6 μM), sulfaphenazole (CYP2C9, 6 μM), quinidine (CYP2D6, 8 μM), sodium diethyldithiocarbamate (CYP2E1, 20 μM), and ketoconazole (CYP3A4, 2 μM). The sample incubated without inhibitors was used as a negative control. The sample was incubated with dimethyl sulfoxide (DMSO) (25%) as a positive control in this study. Following this pilot, confirmatory experiments were conducted by incubating with DLM in the presence of specific CYP450 inhibitors.
# [7] = biological target: T4, CYP2B6 (Canis lupus familiaris, UniProt P24460); assay: CYP450 inhibition study of LKMS in dog liver microsomes, bupropion hydroxylation
# T4 construct: from tissue; host or cells: dog liver microsomes (DLM)
# T4 sequence (P24460 1-494): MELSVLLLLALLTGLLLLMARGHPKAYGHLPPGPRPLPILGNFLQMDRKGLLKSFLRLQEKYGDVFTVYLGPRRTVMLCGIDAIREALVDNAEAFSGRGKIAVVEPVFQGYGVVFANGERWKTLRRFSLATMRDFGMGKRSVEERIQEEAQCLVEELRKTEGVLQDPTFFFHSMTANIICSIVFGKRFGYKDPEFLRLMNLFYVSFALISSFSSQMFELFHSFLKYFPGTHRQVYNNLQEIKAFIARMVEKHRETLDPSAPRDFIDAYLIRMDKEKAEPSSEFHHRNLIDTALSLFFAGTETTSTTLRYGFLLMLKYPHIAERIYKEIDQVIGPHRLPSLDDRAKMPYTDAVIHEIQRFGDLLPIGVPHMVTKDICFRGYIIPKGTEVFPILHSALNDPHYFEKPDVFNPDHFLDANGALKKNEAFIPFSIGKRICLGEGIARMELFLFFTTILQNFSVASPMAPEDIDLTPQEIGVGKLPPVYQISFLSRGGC
# Procedure: as §1, §2, §3
# [8] = CYP450 inhibition study of LKMS in dog liver microsomes, testosterone 6β-hydroxylation; settings: probe at Km, 15 min, 0.2 mg/mL protein, n = 3
# Procedure: as §1, §2, §3
# T2 sequence (Q9MZY0 whole entry): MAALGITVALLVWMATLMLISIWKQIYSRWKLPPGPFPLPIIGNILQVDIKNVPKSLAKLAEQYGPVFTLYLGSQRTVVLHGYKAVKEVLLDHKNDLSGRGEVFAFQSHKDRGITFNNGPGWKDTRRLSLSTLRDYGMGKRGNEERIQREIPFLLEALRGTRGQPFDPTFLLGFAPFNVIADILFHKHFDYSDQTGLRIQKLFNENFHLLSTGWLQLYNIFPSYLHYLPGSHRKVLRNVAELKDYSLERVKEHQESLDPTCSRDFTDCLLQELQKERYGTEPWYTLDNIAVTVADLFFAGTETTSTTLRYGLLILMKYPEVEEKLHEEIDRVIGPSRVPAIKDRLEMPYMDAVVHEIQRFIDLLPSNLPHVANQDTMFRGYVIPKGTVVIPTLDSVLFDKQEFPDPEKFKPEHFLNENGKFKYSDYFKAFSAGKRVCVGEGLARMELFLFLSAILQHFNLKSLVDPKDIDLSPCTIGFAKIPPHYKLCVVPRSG
substance,measurement,setting,value
Lekethromycin [LKMS],Mode of inhibition,"[1]; CYP2D6, Lineweaver-Burk plots",mixed way
same,Ki,"[1]; CYP2D6, dog liver microsomes, Lineweaver-Burk and secondary (slope) plot, n = 2, read-out: Ki (inhibition constant)",64.9 µM
same,αKi (alpha inhibition constant),"[1]; CYP2D6, dog liver microsomes, secondary (intercept) plot, n = 2",279.6 µM
same,IC50,"[1]; dog liver microsomes, dextromethorphan O-demethylation, probe at Km, 15 min, 0.2 mg/mL protein, n = 3",39.7 µM
same,IC50,[2],> 200 µM
same,IC50,[3],> 200 µM
same,IC50,[4],> 200 µM
same,Mode of inhibition,"[5]; CYP2A6, Lineweaver-Burk plots",mixed-type inhibition
same,Ki,"[5]; CYP2A6, dog liver microsomes, Lineweaver-Burk and secondary (slope) plot, n = 2, read-out: Ki (inhibition constant)",136 µM
same,αKi (alpha inhibition constant),"[5]; CYP2A6, dog liver microsomes, secondary (intercept) plot, n = 2",227.6 µM
same,IC50,"[5]; dog liver microsomes, coumarin hydroxylation, probe at Km, 15 min, 0.2 mg/mL protein, n = 3",62.5 µM
same,Decrease of biotransformation rate of LKMS,[6]; CYP1A2 inhibitor α-naphthoflavone 2 μM,about 50%
same,Decrease of biotransformation rate of LKMS,[6]; CYP2A6 inhibitor pilocarpine 8 μM,about 50%
same,Decrease of biotransformation rate of LKMS,[6]; CYP2B6 inhibitor Thio-TEPA 6 μM,about 50%
same,Decrease of biotransformation rate of LKMS,[6]; CYP2C9 inhibitor sulfaphenazole 6 μM,about 50%
same,Decrease of biotransformation rate of LKMS,[6]; CYP2E1 inhibitor sodium diethyldithiocarbamate 20 μM,about 50%
same,Mode of inhibition,"[7]; CYP2B6, Lineweaver-Burk plots",mixed way
same,Ki,"[7]; CYP2B6, dog liver microsomes, Lineweaver-Burk and secondary (slope) plot, n = 2, read-out: Ki (inhibition constant)",59.4 µM
same,αKi (alpha inhibition constant),"[7]; CYP2B6, dog liver microsomes, secondary (intercept) plot, n = 2",12.07 µM
same,IC50,[8],> 200 µM
